Test results reported in patent US11078202B2, “β-lactamase inhibitor and use thereof” (priority 2018, dated 2021).
Structures can show the parent of a compound that is named as a salt.

Columns and labels:
Assay type in all cases: cell-based
[1] = system: Klebsiella pneumoniae XNWB 0003; experiment: MIC assay of test compounds combined with ceftazidime (8 μg/mL); details: ceftazidime 8 μg/mL fixed
Summary of the method: (§1)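 Here, growth inhibition was scored visually following CLSI guidelines once plates containing compound, fixed-dose β-lactam and diluted inoculum had stood 16-20 h at 35±2 °C. Cells were taken from TSA colonies, brought to OD600 0.1-0.15 in 0.9% NaCl, then diluted 300-fold in 1.1×CAMHB.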

[2] = system: Acinetobacter baumannii XNWB 0007; experiment: as above; details: ceftazidime 8 μg/mL fixed
Summary of the method: as §1

[3] = system: Klebsiella pneumoniae XNWB 0002; experiment: as above; details: ceftazidime 8 μg/mL fixed
Summary of the method: as §1

[4] = system: Klebsiella pneumoniae XNWB 0001; experiment: as above; details: ceftazidime 8 μg/mL fixed
Summary of the method: as §1

[5] = system: Klebsiella pneumoniae XNWB 0006; experiment: as above; details: ceftazidime 8 μg/mL fixed
Summary of the method: as §1

[6] = system: Klebsiella pneumoniae XNWB 0005; experiment: as above; details: ceftazidime 8 μg/mL fixed
Summary of the method: as §1

[7] = system: Klebsiella pneumoniae XNWB 0004; experiment: as above; details: ceftazidime 8 μg/mL fixed
Summary of the method: as §1

[8] = system: Pseudomonas aeruginosa XNWB 0008; experiment: as above; details: ceftazidime 8 μg/mL fixed
Summary of the method: as §1

[9] = system: Klebsiella pneumoniae XNWB 0003; experiment: MIC assay of test compounds combined with imipenem (4 μg/mL); details: imipenem 4 μg/mL fixed
Summary of the method: as §1

[10] = system: Acinetobacter baumannii XNWB 0007; experiment: as above; details: imipenem 4 μg/mL fixed
Summary of the method: as §1

[11] = system: Klebsiella pneumoniae XNWB 0002; experiment: as above; details: imipenem 4 μg/mL fixed
Summary of the method: as §1

[12] = system: Klebsiella pneumoniae XNWB 0001; experiment: as above; details: imipenem 4 μg/mL fixed
Summary of the method: as §1

[13] = system: Klebsiella pneumoniae XNWB 0006; experiment: as above; details: imipenem 4 μg/mL fixed
Summary of the method: as §1

[14] = system: Klebsiella pneumoniae XNWB 0005; experiment: as above; details: imipenem 4 μg/mL fixed
Summary of the method: as §1

[15] = system: Klebsiella pneumoniae XNWB 0004; experiment: as above; details: imipenem 4 μg/mL fixed
Summary of the method: as §1

[16] = system: Pseudomonas aeruginosa XNWB 0008; experiment: as above; details: imipenem 4 μg/mL fixed
Summary of the method: as §1

SMILES | The minimum concentration of test compounds combined with ceftazidime (8 μg/mL) for bacteriostasis [1] | The minimum concentration of test compounds combined with ceftazidime (8 μg/mL) for bacteriostasis [2] | The minimum concentration of test compounds combined with ceftazidime (8 μg/mL) for bacteriostasis [3] | The minimum concentration of test compounds combined with ceftazidime (8 μg/mL) for bacteriostasis [4] | The minimum concentration of test compounds combined with ceftazidime (8 μg/mL) for bacteriostasis [5] | The minimum concentration of test compounds combined with ceftazidime (8 μg/mL) for bacteriostasis [6] | The minimum concentration of test compounds combined with ceftazidime (8 μg/mL) for bacteriostasis [7] | The minimum concentration of test compounds combined with ceftazidime (8 μg/mL) for bacteriostasis [8] | The minimum concentration of test compounds combined with imipenem (4 μg/mL) for bacteriostasis [9] | The minimum concentration of test compounds combined with imipenem (4 μg/mL) for bacteriostasis [10] | The minimum concentration of test compounds combined with imipenem (4 μg/mL) for bacteriostasis [11] | The minimum concentration of test compounds combined with imipenem (4 μg/mL) for bacteriostasis [12] | The minimum concentration of test compounds combined with imipenem (4 μg/mL) for bacteriostasis [13] | The minimum concentration of test compounds combined with imipenem (4 μg/mL) for bacteriostasis [14] | The minimum concentration of test compounds combined with imipenem (4 μg/mL) for bacteriostasis [15] | The minimum concentration of test compounds combined with imipenem (4 μg/mL) for bacteriostasis [16]
O=C1N2C[C@H](N1OS(=O)(=O)O)C1(CC1)C[C@H]2c1cc(CC2CNC2)on1 [Example 49, (1R,4S)-4-(5-(azetidin-3-ylmethyl)isoxazol-3-yl)-6-oxo-5,7-diazaspiro[bicycle[3.2.1]octane-2,1′-cyclopropan]-7-yl sulfate] | A (A: <8 μg/mL) | C (C: 16-128 μg/mL) | A (A: <8 μg/mL) | A (A: <8 μg/mL) | A (A: <8 μg/mL) | A (A: <8 μg/mL) | B (B: 8-16 μg/mL) | B (B: 8-16 μg/mL) | A (A: <8 μg/mL) | C (C: 16-128 μg/mL) | A (A: <8 μg/mL) | A (A: <8 μg/mL) | A (A: <8 μg/mL) | A (A: <8 μg/mL) | A (A: <8 μg/mL) | A (A: <8 μg/mL)
O=C(NC1CCNCC1)[C@@H]1CC[C@@H]2CN1C(=O)N2OS(=O)(=O)O [Relebactam, reference compound] | A (A: <8 μg/mL) | C (C: 16-128 μg/mL) | A (A: <8 μg/mL) | A (A: <8 μg/mL) | A (A: <8 μg/mL) | A (A: <8 μg/mL) | A (A: <8 μg/mL) | A (A: <8 μg/mL) | A (A: <8 μg/mL) | C (C: 16-128 μg/mL) | A (A: <8 μg/mL) | A (A: <8 μg/mL) | A (A: <8 μg/mL) | A (A: <8 μg/mL) | A (A: <8 μg/mL) | A (A: <8 μg/mL)
N=C(N)NCCNCCc1cc([C@@H]2CC3(CC3)[C@@H]3CN2C(=O)N3OS(=O)(=O)O)no1 [Example 53, (1R,4S)-4-(5-(2-((2-guanidinoethyl)amino)ethyl)isoxazol-3-yl)-6-oxo-5,7-diazaspiro [bicyclo[3.2.1]octane-2,1′-cyclopropan]-7-yl sulfate] | A (A: <8 μg/mL) | C (C: 16-128 μg/mL) | A (A: <8 μg/mL) | A (A: <8 μg/mL) | A (A: <8 μg/mL) | A (A: <8 μg/mL) | B (B: 8-16 μg/mL) | B (B: 8-16 μg/mL) | A (A: <8 μg/mL) | C (C: 16-128 μg/mL) | A (A: <8 μg/mL) | A (A: <8 μg/mL) | A (A: <8 μg/mL) | A (A: <8 μg/mL) | A (A: <8 μg/mL) | A (A: <8 μg/mL)
NCC(O)c1nnc([C@@H]2CC3(CC3)[C@@H]3CN2C(=O)N3OS(=O)(=O)O)o1 (stereo partly drawn) [Example 9, (1R,4S)-4-(5-(2-amino-1-hydroxyethyl)-1,3,4-oxadiazol-2-yl)-6-oxo-5,7-diazaspiro [bicyclo[3.2.1]octane-2,1′-cyclopropan]-7-yl sulfate] | A (A: <8 μg/mL) | C (C: 16-128 μg/mL) | A (A: <8 μg/mL) | A (A: <8 μg/mL) | A (A: <8 μg/mL) | A (A: <8 μg/mL) | A (A: <8 μg/mL) | B (B: 8-16 μg/mL) | A (A: <8 μg/mL) | A (A: <8 μg/mL) | A (A: <8 μg/mL) | A (A: <8 μg/mL) | A (A: <8 μg/mL) | A (A: <8 μg/mL) | A (A: <8 μg/mL) | A (A: <8 μg/mL)
O=C1N2C[C@H](N1OS(=O)(=O)O)C1(CC1)C[C@H]2c1cc(COC2CNC2)on1 [Example 50, (1R,4S)-4-(5-((azetidin-3-yloxy)methyl)isoxazol-3-yl)-6-oxo-5,7-diazaspiro[bicycle [3.2.1]octane-2,1′-cyclopropan]-7-yl sulfate] | A (A: <8 μg/mL) | C (C: 16-128 μg/mL) | A (A: <8 μg/mL) | A (A: <8 μg/mL) | A (A: <8 μg/mL) | A (A: <8 μg/mL) | B (B: 8-16 μg/mL) | B (B: 8-16 μg/mL) | A (A: <8 μg/mL) | C (C: 16-128 μg/mL) | A (A: <8 μg/mL) | A (A: <8 μg/mL) | A (A: <8 μg/mL) | A (A: <8 μg/mL) | A (A: <8 μg/mL) | A (A: <8 μg/mL)
N=C(N)NCC(O)c1cc([C@@H]2CC3(CC3)[C@@H]3CN2C(=O)N3OS(=O)(=O)O)no1 (stereo partly drawn) [Example 38, (1R,4S)-4-(5-(2-guanidyl-1-hydroxyethyl)isoxazol-3-yl)-6-oxo-5,7-diazaspiro[bicycle [3.2.1]octane-2,1′-cyclopropan]-7-yl sulfate] | A (A: <8 μg/mL) | C (C: 16-128 μg/mL) | A (A: <8 μg/mL) | A (A: <8 μg/mL) | A (A: <8 μg/mL) | A (A: <8 μg/mL) | A (A: <8 μg/mL) | B (B: 8-16 μg/mL) | A (A: <8 μg/mL) | C (C: 16-128 μg/mL) | A (A: <8 μg/mL) | A (A: <8 μg/mL) | A (A: <8 μg/mL) | A (A: <8 μg/mL) | A (A: <8 μg/mL) | A (A: <8 μg/mL)
